In PMC7335050, “Characterization of an alternative BAK-binding site for BH3 peptides” (Nature Communications, 2020):
Where “and” joins values, the source holds several entries; their conditions need not be identical. Identical values can stand only once. Entries after “also recorded” stand apart in the source; their conditions may differ. Residues, ends and D or L forms follow the SMILES beside them.

How the values were obtained:
[1] = biological target: T1, BAKΔTM (Homo sapiens, UniProt Q16611); test: SPR binding of BH3 peptides to immobilized BAKΔTM; conditions: for Kd: BAKΔTM immobilized on CM5 chip, steady-state analysis, three independent SPR assays, top concentrations not threefold above KD, read-out: Approximate dissociation constant ranges, KDs for BAK
T1 construct: BAKΔTM (GenBank BC004431, residues 1–186); His6; made in house; host or cells: E. coli BL21
T1 sequence (Q16611 1-186): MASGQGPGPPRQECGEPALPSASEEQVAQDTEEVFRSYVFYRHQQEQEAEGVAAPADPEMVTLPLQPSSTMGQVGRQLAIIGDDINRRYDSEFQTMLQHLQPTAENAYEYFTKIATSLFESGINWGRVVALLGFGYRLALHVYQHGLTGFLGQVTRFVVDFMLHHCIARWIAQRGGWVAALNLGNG

[2] = system: BAK (His6-BAKΔTM); test: Liposome permeabilization assay (FITC-dextran release) with BAK; format: biochemical, human; conditions: 50 nM BAK + 50 nM BH3 peptide
Method: (§1) 1-Palmitoyl-2-oleoyl-sn-glycero-3-phosphocholine, 1-plamitoyl-2-oleoyl-sn-glycero-3-phosphoethanolamine, L-α-phosphatidyl-inositol, cardiolipin, cholesterol and 18:1 DGS-NTA(Ni) were mixed at a weight ratio of 36:22:9:8:20:5, and dried as thin films in glass test tubes under nitrogen for 16 h. To encapsulate FITC-labeled dextran 10 (F-d10), 50 mg F-d10 was added to 50 mg lipid in 1 ml of 150 KCl buffer containing 20 mM HEPES (pH 7.0), sonicated and extruded 15 times through a 400 nm polycarbonate membrane. Liposomes with F-d10 were further purified by gel filtration on Sephacryl S-300 HR (GE Healthcare). Phosphate was determined by colorimetric assay (Abcam, Cambridge, UK).
(§2) Release of F-d10 from large unilamellar vesicles (LUVs) was monitored by fluorescence dequenching[25] using a fluorimetric plate reader (Thermo Scientific) with SoftMax Pro software. After addition of purified His6-BAKΔTM and/or the BH3 peptides to LUVs (final lipid concentration 10 µg ml^−1), 96 well plates were incubated at 37 °C and recorded (excitation 485 nm, emission 538 nm) every 10 sec. FITC-labeled dextran release was calculated using the equation ((Fsample − Fblank)/(FTriton − Fblank) × 100%), where Fsample, Fblank, and FTriton are the fluorescence recorded for the reagent-, buffer-, and 1% Triton-treated LUVs, respectively.

[3] = system: Bak in mitochondria from Bax−/− MEFs; test: Cytochrome c release from mitochondria of Bax−/− MEFs; format: biochemical, mouse
Method: (§3) Mitochondria[43] purified from Bax^−/− MEFs were incubated with the indicated concentrations of navitoclax, S63845 or BH3 peptides at 25 °C for 90 min. After centrifugation (10,000 g, 15 min) and washing, supernatants and pellets were analyzed by immunoblotting. Alternatively, His6-BAKΔTM was dialyzed against mitochondria (mito) buffer (150 mM KCl, 5 mM MgCl2, 1 mM EGTA, 25 mM HEPES, pH 7.5) and diluted into mito buffer with 5 mM DTT. Mitochondria purified from Bak^−/−Bax^−/− MEFs were then incubated with 2 μM His6-BAKΔTM and the indicated BH3 peptides (5 μM) at 25 °C for 90 min. After centrifugation (10,000 × g, 15 min) and washing, supernatants and pellets were analyzed by immunoblotting.

[4] = system: human BAKΔTM; test: Cytochrome c release from mitochondria of Bak−/−Bax−/− MEFs plus purified human BAKΔTM; format: biochemical; conditions: 2 μM His6-BAKΔTM, 5 μM BH3 peptide, 25 °C, 90 min, immunoblotting
Method: as §3

[5] = system: BAK F161A; conditions: SPR, ~4000 RU immobilized, series of peptide concentrations, three independent experiments
Text: (§4) Plasmids encoding BAKΔTM (GenBank BC004431, residues 1–186) in pET29b(+) was kindly provided by Qian Liu and Kalle Gehring (McGill University, Montreal, Canada)[34]. Plasmids encoding BAK 15–186 and the corresponding BAK mutants were generated using site-directed mutagenesis. All plasmids were subjected to automated sequencing to verify the described alterations and confirm that no additional mutations were present.
(§5) Proteins for SPR were further purified by FPLC on Superdex S200, concentrated in a centrifugal concentrator (Centricon, Millipore), dialyzed against Biacore buffer (10 mM 4-(2-hydroxyethyl)-1-piperazineethanesulfonic acid (HEPES; pH 7.4), 150 mM NaCl, 0.05 mM ethylenediaminetetraacetic acid (EDTA) and 0.005% (w/v) polysorbate 20) and stored at 4 °C for <48 h before use.
(§6) BAKΔTM or mutants were immobilized on a CM5 chip using a Biacore T200 biosensor with a blank channel as a negative control. Binding assays were performed at 25 °C using Biacore buffer containing the indicated BH3 peptides injected at 30 µl per min for 1 min using a Biacore T200 Control Software. Proteins were allowed to dissociate during perfusion with Biacore buffer at 30 µl per min for 10 min and then desorbed with 2 M MgCl2. All binding affinities were derived by Biacore T200 Evaluation Software using Steady State analysis (Biacore, Uppsala, Sweden).

[6] = system: BAK F93E; conditions: SPR, about 4000 RU immobilized, series of peptide concentrations, three independent experiments
Text: as §4, §5, §6

[7] = system: BAK G126S; conditions: SPR, about 4000 RU immobilized, series of peptide concentrations, three independent experiments
Text: as §4, §5, §6

[8] = system: BAK H164A/H165A; conditions: SPR, ~4000 RU immobilized, series of peptide concentrations, three independent experiments
Text: as §4, §5, §6

[9] = system: BAKΔTM F161A; test: Liposome permeabilization assay with BAKΔTM F161A; format: biochemical, human; conditions: 50 nM BAKΔTM F161A vs WT, 50 nM BH3 peptide, three independent experiments
Method: as §1, §2

[10] = 90 min at 25 °C, immunoblotting of supernatants and pellets

CC[C@H](C)[C@H](NC(=O)[C@H](CS)NC(=O)[C@H](C)NC(=O)[C@H](CC(C)C)NC(=O)[C@H](CCCNC(=N)N)NC(=O)[C@H](CC(C)C)NC(=O)[C@H](C)NC(=O)[C@H](CC(C)C)NC(=O)[C@H](C)NC(=O)[C@H](CC(=O)O)NC(=O)[C@H](CO)NC(=O)CNC(=O)[C@@H](N)CCC(=O)O)C(=O)NCC(=O)N[C@@H](CC(=O)O)C(=O)N[C@@H](CCC(=O)O)C(=O)N[C@@H](CCSC)C(=O)N[C@@H](CC(=O)O)C(=O)N[C@H](C(=O)N[C@@H](CO)C(=O)N[C@@H](CC(C)C)C(=O)N[C@@H](CCCNC(=N)N)C(=O)N[C@@H](C)C(=O)N1CCC[C@H]1C(=O)N[C@@H](CCCNC(=N)N)C(=O)O)C(C)C [BIK BH3] (H-EGSDALALRLACIGDEMDVSLRAPR-OH; N-terminus and C-terminus assumed)
Kd ([1]; SPR, 25 °C): > 10000 nM
Binding to BAKΔTM by SPR, in words ([1]; SPR, immobilized BAKΔTM, 25 °C): did not detect interactions; also recorded: undetectable
Increase of BAK-mediated liposome release, in words [2]: did not appreciably increase
Concentration that induced cytochrome c release ([3]; 90 min at 25 °C, immunoblotting of supernatants and pellets, 10 μM highest concentration tested): 10 µM
Fold less active than the HRK BH3 peptide in cytochrome c release ([3]; MCL1 inhibitor S63845 added together with peptide, response to reviewers): about 10 fold
Cytochrome c release, in words [4]: barely induced cytochrome c release

CC[C@H](C)[C@H](NC(=O)[C@H](CS)NC(=O)[C@H](CCC(N)=O)NC(=O)[C@H](CC(C)C)NC(=O)[C@H](CCCCN)NC(=O)[C@H](CCCNC(=N)N)NC(=O)[C@H](C)NC(=O)[C@@H](NC(=O)[C@H](CCC(N)=O)NC(=O)[C@@H](NC(=O)[C@H](CCC(=O)O)NC(=O)[C@H](C)NC(=O)[C@@H](N)CCC(N)=O)C(C)C)[C@@H](C)CC)C(=O)N[C@@H](C)C(=O)N[C@@H](CC(=O)O)C(=O)N[C@@H](CCC(N)=O)C(=O)N[C@@H](Cc1ccccc1)C(=O)N[C@@H](Cc1c[nH]cn1)C(=O)N[C@@H](CCCNC(=N)N)C(=O)N[C@@H](CC(C)C)C(=O)N[C@@H](Cc1c[nH]cn1)C(=O)N[C@H](C(=O)N[C@@H](CCC(N)=O)C(=O)N[C@@H](CCC(N)=O)C(=O)N[C@@H](Cc1c[nH]cn1)C(=O)N[C@@H](CCC(N)=O)C(=O)O)C(C)C [BMF BH3] (H-QAEVQIARKLQCIADQFHRLHVQQHQ-OH; N-terminus and C-terminus assumed)
Kd ([1]; SPR, 25 °C): 400 to 600 nM and < 1000 nM
Association and dissociation, direct comparison of SPR curves ([1]; peptides at 1600 nM, immobilized BAKΔTM): fastest association with BAKΔTM and slowest dissociation
BAK-dependent release of liposome contents (FITC-dextran release) ([2]; 37 °C, fluorescence dequenching, BAK alone 28%, mean of three independent experiments): 46%
Cytochrome c release, in words [4]: intermediate amount
Effect of BAK F161A mutation on peptide binding (maximum RU) vs WT BAKΔTM [5]: diminished binding
Effect of BAK F93E mutation on peptide binding (maximum RU) vs WT BAKΔTM [6]: did not appreciably affect binding
Effect of BAK G126S mutation on peptide binding (maximum RU) vs WT BAKΔTM [7]: did not appreciably affect binding
Effect of BAK H164A/H165A mutation on peptide binding (maximum RU) vs WT BAKΔTM [8]: diminished binding
Effect of F161A mutation on BAK-mediated liposome permeabilization initiated by the peptide [9]: markedly decreased

CC[C@H](C)[C@H](NC(=O)[C@H](CCC(=O)O)NC(=O)[C@H](CCCNC(=N)N)NC(=O)[C@H](C)NC(=O)[C@H](Cc1c[nH]c2ccccc12)NC(=O)[C@@H](N)CCC(N)=O)C(=O)NCC(=O)N[C@@H](C)C(=O)N[C@@H](CCC(N)=O)C(=O)N[C@@H](CC(C)C)C(=O)N[C@@H](CCCNC(=N)N)C(=O)N[C@@H](CCCNC(=N)N)C(=O)N[C@@H](CCSC)C(=O)N[C@@H](C)C(=O)N[C@@H](CC(=O)O)C(=O)N[C@@H](CC(=O)O)C(=O)N[C@@H](CC(C)C)C(=O)N[C@@H](CC(N)=O)C(=O)N[C@@H](C)C(=O)N[C@@H](CCC(N)=O)C(=O)N[C@@H](Cc1ccc(O)cc1)C(=O)N[C@@H](CCC(=O)O)C(=O)N[C@@H](CCCNC(=N)N)C(=O)N[C@@H](CCCNC(=N)N)C(=O)N[C@@H](CCCNC(=N)N)C(=O)N[C@@H](CCC(N)=O)C(=O)O [PUMA BH3, reference compound]
Kd ([1]; SPR, 25 °C): 2000 to 2800 nM
Effect of F161A mutation on BAK-mediated liposome permeabilization initiated by the peptide [9]: did not affect

Cc1c(-c2c(-c3ccc(F)o3)sc3ncnc(O[C@H](Cc4ccccc4OCc4ccnn4CC(F)(F)F)C(=O)O)c23)ccc(OCCN2CCN(C)CC2)c1Cl [S63845]
Cytochrome c release, in words [3, 10]: failed to induce cytochrome c release

CC1(C)CCC(c2ccc(Cl)cc2)=C(CN2CCN(c3ccc(C(=O)NS(=O)(=O)c4ccc(N[C@H](CCN5CCOCC5)CSc5ccccc5)c(S(=O)(=O)C(F)(F)F)c4)cc3)CC2)C1 [navitoclax]
Cytochrome c release, in words [3, 10]: failed to induce cytochrome c release
Effect on BIK or HRK BH3-induced cytochrome c release ([3]; navitoclax applied along with BIK BH3 or HRK BH3): did not enhance
